Where only a bound is given, the exact number is not on record here.

For one experiment, the target named is TYK2 JH2 domain (Homo sapiens (Human), UniProt P29597). The experiment is described as follows: TYK2 JH2 NanoBRET assay. The experiment is classed as binding. Particulars: Table 20, read-out: TYK2 IC50. Here is the method:
HEK293T cells were transfected with NanoLuc-TYK2 JH2 Fusion Vector (Promega, customized) using Trans-IT reagent (Mirus, #MIR2700) and incubated for overnight in 37° C. incubator. […] Add 85 µL of cell suspension into white, polypropylene, 96-well plates (Corning, #3600). 90 µL of cells were used for no tracer control samples. 5 µL of diluted NanoBRET K10 tracer (Promega, #CS1810C122) were added to cells to a final concentration of 0.5 µM. Test compounds were diluted into DMSO, and then phenol-free opti-MEM to 10X of final concentration. 10 µL of diluted compounds were added into each well. The cells were incubated with test compound and tracer for 2 hours. 3XNanoBRET® Nano-Glo® Substrate and Extracellular NanoLuc® Inhibitor mixture were prepared and 50 µL of the mixture were added into the wells and mixed. […] NanoBRET signal was determined by using the ratio of acceptor signal and donor signal.

A further experiment deals with human JAK1 (Homo sapiens (Human), UniProt P23458). Put plainly: JAK1 TR-FRET kinase assay. The experiment is classed as biochemical. Particulars: TR-FRET, JAK1 2.5 nM. (TR-FRET usually uses a lanthanide donor and a delayed reading to cut background.)
Chain of human JAK1 (P23458 whole entry): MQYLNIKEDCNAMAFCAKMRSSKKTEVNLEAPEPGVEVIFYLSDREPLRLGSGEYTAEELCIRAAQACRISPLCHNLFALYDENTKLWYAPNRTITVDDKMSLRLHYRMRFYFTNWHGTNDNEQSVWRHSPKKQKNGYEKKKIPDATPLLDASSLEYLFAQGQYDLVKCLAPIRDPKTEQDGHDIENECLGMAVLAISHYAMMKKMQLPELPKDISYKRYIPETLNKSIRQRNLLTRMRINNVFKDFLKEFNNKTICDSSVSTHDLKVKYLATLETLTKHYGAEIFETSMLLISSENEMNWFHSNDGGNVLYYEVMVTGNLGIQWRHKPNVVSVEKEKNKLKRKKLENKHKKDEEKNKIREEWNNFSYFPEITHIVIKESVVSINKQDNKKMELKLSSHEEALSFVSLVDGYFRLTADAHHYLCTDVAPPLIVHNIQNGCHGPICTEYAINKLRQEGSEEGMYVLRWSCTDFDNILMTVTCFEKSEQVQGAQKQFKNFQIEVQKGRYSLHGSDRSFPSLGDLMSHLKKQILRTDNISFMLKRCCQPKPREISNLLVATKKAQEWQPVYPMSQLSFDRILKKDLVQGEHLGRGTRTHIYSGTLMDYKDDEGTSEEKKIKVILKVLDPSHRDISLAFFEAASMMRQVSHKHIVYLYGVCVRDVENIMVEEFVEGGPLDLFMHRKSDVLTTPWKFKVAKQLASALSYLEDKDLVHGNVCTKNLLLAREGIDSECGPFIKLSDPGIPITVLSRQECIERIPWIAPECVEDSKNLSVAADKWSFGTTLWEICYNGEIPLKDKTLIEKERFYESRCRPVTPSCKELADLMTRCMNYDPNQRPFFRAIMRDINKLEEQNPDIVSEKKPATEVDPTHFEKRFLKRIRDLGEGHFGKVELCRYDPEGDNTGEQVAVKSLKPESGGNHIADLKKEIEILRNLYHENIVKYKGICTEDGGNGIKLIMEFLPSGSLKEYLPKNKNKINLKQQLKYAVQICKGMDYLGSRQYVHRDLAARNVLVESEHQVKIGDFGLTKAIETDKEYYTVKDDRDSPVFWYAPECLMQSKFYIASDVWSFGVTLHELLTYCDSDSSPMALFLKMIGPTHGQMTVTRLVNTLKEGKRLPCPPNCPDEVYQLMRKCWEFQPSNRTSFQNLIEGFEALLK
Another experiment has as its target human JAK2 (Homo sapiens (Human), UniProt O60674). The experiment is described as follows: JAK2 TR-FRET kinase assay. In kind it is biochemical. Particulars: JAK2 0.025 nM.
The target in the next experiment is human JAK3 (Homo sapiens (Human), UniProt P52333). The experiment is described as follows: JAK3 TR-FRET kinase assay. The experiment is classed as biochemical. Particulars: JAK3 0.0125 nM.
Chain of human JAK3 (P52333 whole entry): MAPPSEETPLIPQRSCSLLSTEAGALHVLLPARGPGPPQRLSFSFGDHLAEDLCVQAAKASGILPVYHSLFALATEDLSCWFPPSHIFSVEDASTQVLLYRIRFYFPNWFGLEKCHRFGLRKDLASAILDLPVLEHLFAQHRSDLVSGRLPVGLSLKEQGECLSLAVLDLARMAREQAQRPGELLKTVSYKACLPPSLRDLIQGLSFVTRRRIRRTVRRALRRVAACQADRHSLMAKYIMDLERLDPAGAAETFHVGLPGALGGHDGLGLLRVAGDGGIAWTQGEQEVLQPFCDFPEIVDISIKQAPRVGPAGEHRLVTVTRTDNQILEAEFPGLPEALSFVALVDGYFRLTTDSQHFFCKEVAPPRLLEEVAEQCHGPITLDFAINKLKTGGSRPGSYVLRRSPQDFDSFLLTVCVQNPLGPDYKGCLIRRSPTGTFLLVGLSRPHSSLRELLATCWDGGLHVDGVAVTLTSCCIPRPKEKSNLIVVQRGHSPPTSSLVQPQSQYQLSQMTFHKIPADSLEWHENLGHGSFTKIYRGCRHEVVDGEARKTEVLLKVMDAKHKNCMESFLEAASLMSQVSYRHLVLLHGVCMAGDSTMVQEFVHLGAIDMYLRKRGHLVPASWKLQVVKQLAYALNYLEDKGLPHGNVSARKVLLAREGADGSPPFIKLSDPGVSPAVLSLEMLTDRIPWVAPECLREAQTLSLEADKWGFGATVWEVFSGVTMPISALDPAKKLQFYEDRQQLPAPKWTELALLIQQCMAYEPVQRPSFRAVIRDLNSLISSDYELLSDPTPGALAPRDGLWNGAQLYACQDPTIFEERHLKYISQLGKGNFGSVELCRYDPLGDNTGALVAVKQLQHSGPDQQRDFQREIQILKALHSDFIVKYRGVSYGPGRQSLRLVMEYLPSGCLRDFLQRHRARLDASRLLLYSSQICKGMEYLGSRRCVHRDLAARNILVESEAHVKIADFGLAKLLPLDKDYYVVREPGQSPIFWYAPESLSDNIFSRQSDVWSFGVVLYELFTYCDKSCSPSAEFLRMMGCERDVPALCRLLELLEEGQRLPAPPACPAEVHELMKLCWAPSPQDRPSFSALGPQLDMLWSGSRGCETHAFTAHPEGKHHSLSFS

Chain of human JAK2 (O60674 whole entry): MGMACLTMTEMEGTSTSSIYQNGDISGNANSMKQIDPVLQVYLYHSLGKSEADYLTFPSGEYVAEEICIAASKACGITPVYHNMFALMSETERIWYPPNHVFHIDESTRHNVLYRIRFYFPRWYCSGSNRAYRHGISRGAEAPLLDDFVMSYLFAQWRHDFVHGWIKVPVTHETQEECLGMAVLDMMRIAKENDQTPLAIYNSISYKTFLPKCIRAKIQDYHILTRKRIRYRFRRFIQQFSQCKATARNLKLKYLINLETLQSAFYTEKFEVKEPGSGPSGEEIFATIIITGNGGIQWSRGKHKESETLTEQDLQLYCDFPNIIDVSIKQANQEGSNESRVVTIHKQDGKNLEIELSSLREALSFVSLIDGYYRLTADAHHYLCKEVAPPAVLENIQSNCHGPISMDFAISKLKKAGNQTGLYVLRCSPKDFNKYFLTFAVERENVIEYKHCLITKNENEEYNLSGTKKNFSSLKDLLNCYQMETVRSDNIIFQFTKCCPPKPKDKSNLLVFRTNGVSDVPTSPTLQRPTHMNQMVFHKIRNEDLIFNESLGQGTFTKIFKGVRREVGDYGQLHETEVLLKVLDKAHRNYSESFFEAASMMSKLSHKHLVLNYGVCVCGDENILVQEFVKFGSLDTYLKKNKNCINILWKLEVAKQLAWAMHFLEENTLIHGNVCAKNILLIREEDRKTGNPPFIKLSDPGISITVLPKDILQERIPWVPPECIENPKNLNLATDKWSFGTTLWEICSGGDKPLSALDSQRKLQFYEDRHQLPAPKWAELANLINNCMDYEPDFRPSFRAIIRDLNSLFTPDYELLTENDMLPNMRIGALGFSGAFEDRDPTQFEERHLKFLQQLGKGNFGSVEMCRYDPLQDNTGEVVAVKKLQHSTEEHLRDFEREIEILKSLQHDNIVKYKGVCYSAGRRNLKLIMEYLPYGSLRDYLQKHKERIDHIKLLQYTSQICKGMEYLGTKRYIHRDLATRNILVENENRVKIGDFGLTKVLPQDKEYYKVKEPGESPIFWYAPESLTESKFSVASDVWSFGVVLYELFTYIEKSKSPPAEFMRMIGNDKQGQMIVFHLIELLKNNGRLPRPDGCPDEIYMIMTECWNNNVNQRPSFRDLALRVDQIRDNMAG
Chain of TYK2 JH2 domain (P29597 589-875): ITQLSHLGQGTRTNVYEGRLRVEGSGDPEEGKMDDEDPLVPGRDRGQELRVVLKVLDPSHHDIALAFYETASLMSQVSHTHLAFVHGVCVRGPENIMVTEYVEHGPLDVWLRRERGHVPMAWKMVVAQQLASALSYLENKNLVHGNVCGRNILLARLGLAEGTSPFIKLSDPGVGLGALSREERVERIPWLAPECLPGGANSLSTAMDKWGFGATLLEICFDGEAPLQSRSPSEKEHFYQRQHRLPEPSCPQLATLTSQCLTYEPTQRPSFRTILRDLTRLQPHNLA

As a reminder, the IC50 is the concentration that gives 50% inhibition. `CCC(=O)c1cnc(Nc2ccc(CN3CC(C#N)C3)cn2)cc1Nc1cccc(-c2ncn(C)n2)c1OC` [Compound 9FF]: the IC50 was 5 to 50 nM at TYK2 JH2 domain, at least 500 nM on human JAK1, at least 500 nM against human JAK2 and 50 to 500 nM on human JAK3.

For the compound `COc1c(Nc2cc(Nc3ccc(CN(C)C)cn3)ncc2C(=O)C2CC2)cccc1-c1ncn(C)n1` [Compound 9F], the IC50 on TYK2 JH2 domain was 5 to 50 nM; against human JAK1, at least 500 nM; against human JAK2 it was at least 500 nM; at human JAK3 it was at least 500 nM.

For the compound `CCC(=O)c1cnc(Nc2cccc(CN3CCCCC3)n2)cc1Nc1cccc(-c2ncn(C)n2)c1OC` [Compound 9GGGG], the IC50 at TYK2 JH2 domain is 5 to 50 nM; against human JAK1, at least 500 nM; on human JAK2, at least 500 nM; against human JAK3, at least 500 nM.

Turning to `CCC(=O)c1cnc(Nc2ccc(CNC)nn2)cc1Nc1cccc(-c2ncn(C)n2)c1OC` [Compound 9GGG], the IC50 is 5 to 50 nM at TYK2 JH2 domain, at least 500 nM against human JAK1, at least 500 nM at human JAK2 and at least 500 nM against human JAK3.

As for `CCC(=O)c1cnc(Nc2ccc([C@H](C)N3CC(O)C3)cn2)cc1Nc1cccc(-c2ncn(C)n2)c1OC` [Compound 9GG], the half-inhibitory concentration (IC50) on TYK2 JH2 domain was 5 to 50 nM; against human JAK1, at least 500 nM; against human JAK2, at least 500 nM; against human JAK3, at least 500 nM.

Consider `CCC(=O)c1cnc(Nc2ccc(C(C)N)cn2)cc1Nc1cccc(-c2ncn(C)n2)c1OC` (stereo not shown) [Compound 9G], for which the IC50 on TYK2 JH2 domain is below 5 nM; against human JAK1 it was at least 500 nM; against human JAK2, at least 500 nM; against human JAK3, at least 500 nM.

In the case of `CCC(=O)c1cnc(Nc2cccc(CN3CCOCC3)n2)cc1Nc1cccc(-c2ncn(C)n2)c1OC` [Compound 9HHHH], the IC50 is below 5 nM on TYK2 JH2 domain, at least 500 nM on human JAK1, at least 500 nM against human JAK2 and at least 500 nM against human JAK3.

For the compound `CCC(=O)c1cnc(Nc2ccc(CN(C)C)nn2)cc1Nc1cccc(-c2ncn(C)n2)c1OC` [Compound 9HHH], the IC50 on TYK2 JH2 domain was 5 to 50 nM; at human JAK1 it was at least 500 nM; on human JAK2 it was at least 500 nM; at human JAK3, at least 500 nM.

On to `CCC(=O)c1cnc(Nc2ccc([C@@H](C)N3CC(O)C3)cn2)cc1Nc1cccc(-c2ncn(C)n2)c1OC` [Compound 9HH], for which the IC50 was 5 to 50 nM on TYK2 JH2 domain, at least 500 nM against human JAK1, at least 500 nM against human JAK2 and at least 500 nM against human JAK3.

For `CCC(=O)c1cnc(Nc2ccc(C(C)NC)cn2)cc1Nc1cccc(-c2ncn(C)n2)c1OC` (stereo not shown) [Compound 9H], the IC50 is below 5 nM on TYK2 JH2 domain, at least 500 nM on human JAK1, at least 500 nM against human JAK2 and at least 500 nM at human JAK3.

Take `CCC(=O)c1cnc(Nc2cc(CN3CCCC3)ccn2)cc1Nc1cccc(-c2ncn(C)n2)c1OC` [Compound 9IIII]: the IC50 is below 5 nM on TYK2 JH2 domain, at least 500 nM on human JAK1, 50 to 500 nM at human JAK2 and 50 to 500 nM against human JAK3.

With `CCC(=O)c1cnc(Nc2ccc(C(C)N)nn2)cc1Nc1cccc(-c2ncn(C)n2)c1OC` (stereo not shown) [Compound 9III], the IC50 at TYK2 JH2 domain was 5 to 50 nM; against human JAK1, at least 500 nM; at human JAK2 it was at least 500 nM; at human JAK3, at least 500 nM.

Turning to `CCC(=O)c1cnc(Nc2ccc(CN3CCCC3)cn2)cc1Nc1cccc(-c2ncn(C)n2)c1OC` [Compound 9II], the IC50 on TYK2 JH2 domain is below 5 nM; against human JAK1, at least 500 nM; at human JAK2, at least 500 nM; against human JAK3, at least 500 nM.

As to `CCC(=O)c1cnc(Nc2ccc(C(C)N(C)C)cn2)cc1Nc1cccc(-c2ncn(C)n2)c1OC` (stereo not shown) [Compound 9I], the IC50 at TYK2 JH2 domain is below 5 nM; against human JAK1, at least 500 nM; at human JAK2, at least 500 nM; at human JAK3, at least 500 nM.

Take `CCC(=O)c1cnc(Nc2cc(CN3CCCCC3)ccn2)cc1Nc1cccc(-c2ncn(C)n2)c1OC` [Compound 9JJJJ]: the IC50 on TYK2 JH2 domain is below 5 nM; against human JAK1, at least 500 nM; against human JAK2, at least 500 nM; at human JAK3 it was 50 to 500 nM.

In the case of `CCC(=O)c1cnc(Nc2ccc(C(C)NC)nn2)cc1Nc1cccc(-c2ncn(C)n2)c1OC` (stereo not shown) [Compound 9JJJ], the IC50 is 5 to 50 nM at TYK2 JH2 domain, at least 500 nM at human JAK1, at least 500 nM against human JAK2 and at least 500 nM against human JAK3.

Turning to `CCC(=O)c1cnc(Nc2ccc(CN3CC[C@@H](F)C3)cn2)cc1Nc1cccc(-c2ncn(C)n2)c1OC` [Compound 9JJ], the IC50 on TYK2 JH2 domain was below 5 nM; against human JAK1, at least 500 nM; at human JAK2, at least 500 nM; against human JAK3 it was at least 500 nM.

Take `CCC(=O)c1cnc(Nc2ccc([C@@H](C)N(C)C)cn2)cc1Nc1cccc(-c2ncn(C)n2)c1OC` [Compound 9J]: the IC50 was below 5 nM on TYK2 JH2 domain, at least 500 nM on human JAK1, at least 500 nM on human JAK2 and at least 500 nM against human JAK3.

With `CCC(=O)c1cnc(Nc2cc(CN3CCOCC3)ccn2)cc1Nc1cccc(-c2ncn(C)n2)c1OC` [Compound 9KKKK], the IC50 on TYK2 JH2 domain is below 5 nM; at human JAK1, at least 500 nM; against human JAK2, at least 500 nM; on human JAK3, 50 to 500 nM.

Take `CCC(=O)c1cnc(Nc2ccc(C(C)N(C)C)nn2)cc1Nc1cccc(-c2ncn(C)n2)c1OC` (stereo not shown) [Compound 9KKK]: the IC50 is below 5 nM at TYK2 JH2 domain, at least 500 nM at human JAK1, at least 500 nM against human JAK2 and at least 500 nM against human JAK3.

Take `CCC(=O)c1cnc(Nc2ccc(CN3CC[C@H](F)C3)cn2)cc1Nc1cccc(-c2ncn(C)n2)c1OC` [Compound 9KK]: the half-maximal inhibitory concentration (IC50) at TYK2 JH2 domain is below 5 nM; against human JAK1, at least 500 nM; at human JAK2 it was at least 500 nM; at human JAK3, at least 500 nM.

Regarding `CCC(=O)c1cnc(Nc2ccc([C@H](C)N(C)C)cn2)cc1Nc1cccc(-c2ncn(C)n2)c1OC` [Compound 9K], the IC50 on TYK2 JH2 domain is below 5 nM; on human JAK1, at least 500 nM; against human JAK2, at least 500 nM; against human JAK3, at least 500 nM.

As for `CCC(=O)c1cnc(Nc2cc(CN)ncn2)cc1Nc1cccc(-c2ncn(C)n2)c1OC` [Compound 9LLLL], the IC50 on TYK2 JH2 domain is below 5 nM; on human JAK1, at least 500 nM; on human JAK2, at least 500 nM; against human JAK3, at least 500 nM.

With `CCC(=O)c1cnc(Nc2ccc([C@H](C)N3CC[C@H](O)C3)cn2)cc1Nc1cccc(-c2ncn(C)n2)c1OC` [Compound 9LL], the IC50 was below 5 nM at TYK2 JH2 domain, at least 500 nM at human JAK1, at least 500 nM on human JAK2 and 50 to 500 nM against human JAK3.

Regarding `CCC(=O)c1cnc(Nc2cc(CNC)ncn2)cc1Nc1cccc(-c2ncn(C)n2)c1OC` [Compound 9MMMM], the concentration for half-maximal inhibition (IC50) at TYK2 JH2 domain was 5 to 50 nM; at human JAK1, at least 500 nM; at human JAK2, at least 500 nM; against human JAK3, at least 500 nM.

For `CCC(=O)c1cnc(Nc2ccc(C(C)(C)NC)nn2)cc1Nc1cccc(-c2ncn(C)n2)c1OC` [Compound 9MMM], the IC50 was 5 to 50 nM at TYK2 JH2 domain, at least 500 nM at human JAK1, at least 500 nM at human JAK2 and at least 500 nM against human JAK3.

In the case of `CCC(=O)c1cnc(Nc2ccc([C@@H](C)N3CC[C@H](O)C3)cn2)cc1Nc1cccc(-c2ncn(C)n2)c1OC` [Compound 9MM], the IC50 at TYK2 JH2 domain was below 5 nM; against human JAK1 it was at least 500 nM; at human JAK2, at least 500 nM; on human JAK3, at least 500 nM.

Take `CCC(=O)c1cnc(Nc2cc(CN3CCCC3)ncn2)cc1Nc1cccc(-c2ncn(C)n2)c1OC` [Compound 9NNNN]: the concentration for half-maximal inhibition (IC50) at TYK2 JH2 domain was below 5 nM; on human JAK1, at least 500 nM; against human JAK2, at least 500 nM; on human JAK3, at least 500 nM.

In the case of `CCC(=O)c1cnc(Nc2ccc(C(C)(C)N(C)C)nn2)cc1Nc1cccc(-c2ncn(C)n2)c1OC` [Compound 9NNN], the IC50 at TYK2 JH2 domain was 5 to 50 nM; against human JAK1, at least 500 nM; against human JAK2, at least 500 nM; on human JAK3, at least 500 nM.

On to `CCC(=O)c1cnc(Nc2ccc([C@H](C)N3CC[C@@H](O)C3)cn2)cc1Nc1cccc(-c2ncn(C)n2)c1OC` [Compound 9NN], for which the IC50 at TYK2 JH2 domain was below 5 nM; on human JAK1, at least 500 nM; at human JAK2, at least 500 nM; against human JAK3 it was at least 500 nM.

Regarding `CCC(=O)c1cnc(Nc2ccc(C(C)(C)N(C)C)cn2)cc1Nc1cccc(-c2ncn(C)n2)c1OC` [Compound 9N], the IC50 at TYK2 JH2 domain was below 5 nM; on human JAK1 it was at least 500 nM; at human JAK2 it was at least 500 nM; on human JAK3, at least 500 nM.

For the compound `CCC(=O)c1cnc(Nc2cc(C(C)N)ncn2)cc1Nc1cccc(-c2ncn(C)n2)c1OC` (stereo not shown) [Compound 9OOOO], the IC50 at TYK2 JH2 domain is below 5 nM; on human JAK1, at least 500 nM; against human JAK2, at least 500 nM; at human JAK3, at least 500 nM.

In the case of `CCC(=O)c1cnc(Nc2ccc(CN3CCCC3)nn2)cc1Nc1cccc(-c2ncn(C)n2)c1OC` [Compound 9OOO], the IC50 is 5 to 50 nM at TYK2 JH2 domain, at least 500 nM on human JAK1, at least 500 nM at human JAK2 and at least 500 nM against human JAK3.

Turning to `CCC(=O)c1cnc(Nc2ccc([C@@H](C)N3CC[C@@H](O)C3)cn2)cc1Nc1cccc(-c2ncn(C)n2)c1OC` [Compound 9OO], the IC50 on TYK2 JH2 domain was below 5 nM; at human JAK1, at least 500 nM; on human JAK2, 50 to 500 nM; at human JAK3, 50 to 500 nM.
